Data taken from US20250206761A1, “HALOINDOLE MACROCYCLIC COMPOUNDS FOR THE TREATMENT OF CANCER” (Hoffmann-La Roche Inc., priority 2022, published 2025).
Like-named read-outs stand apart in the source and are kept apart here.

Tests used:
[1] = ester bond, EDCI/HOBt/DIEA, DCM, 12.0 h
[2] = test system: phosphorylation of ERK, KRAS G12V in SW620; assay: pERK inhibition assay, KRAS G12V; assay type: cell-based, human; conditions: Homo sapiens, SW-620, SW620, 4 hours
In short: (§1)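 Read-out is OD450 from a TMB colorimetric cell ELISA using a phospho-ERK-specific antibody and HRP-linked secondary. Compounds were incubated with the cells for 4 hours at 0.5% DMSO before fixation and permeabilization. IC50 values come from 4-parameter concentration-response fitting.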

[3] = molecular target: T1, KRAS G12C-BRAF complex (Homo sapiens (Human), UniProt P01116+P62937, G12C); assay: KRAS-BRAF with CYPA (500 nM) interaction assay (TR-FRET), G12C; assay type: biochemical
[4] = molecular target: KRAS G12D binding to BRAF (Homo sapiens (Human), UniProt P01116+P62937, G12D); assay: KRAS-BRAF with CYPA (500 nM) interaction assay (TR-FRET), G12D; assay type: biochemical
[5] = molecular target: T1, KRAS G12C-BRAF complex; assay: KRAS G12C-BRAF NanoBit assay; assay type: cell-based; conditions: HEK293 cells, 3 hours of incubation
Experimental: This assay is to measure the ability of tested compounds in disruption of the KRAS G12C-BRAF complex at the cellular level, we established the NanoBit cellular assay in mammalian HEK293 (ATCC) cells.
HEK293 cells were grown and maintained using DMEM medium (Thermo Fisher Scientific) with 10% fetal bovine serum and 1% penicillin/streptomycin. Both KRAS G12C and BRAF RBD were cloned into the NanoBit vectors ([…] vectors system, Promega) with the orientations SnmBit-KRAS G12C and BRAF RBD-LgBit, respectively, and co-transfected into HEK293 cells. Cells were then selected with 100 μg/mL Hygromycin B (10687010, Thermo Fisher) and Blasticidin (5 μg/mL) for 4 weeks to get the stable cell pool.
On the day of the assay, 75 nL of compound solution was presented in a 384-well assay plate as a 16-point 3-fold dilution starting from a final concentration of 30 μM in DMSO. Then cells were seeded at 10,000 cells/25 μL/well in a 384-well plate. After 3 hours of incubation, 6 μL of volume of Nano-Glo® Live Cell Substrate (Promega) was added into each well. Monitor luminescence using ultra384 model in Envision at 20 minutes. Compounds that facilitate disruption of the KRAS G12C-BRAF RBD complex were identified as those eliciting a decrease of luminescence relative to DMSO control wells.

[6] = test system: phosphorylation of ERK, KRAS G12D in AGS cells; assay: pERK inhibition assay, KRAS G12D; assay type: cell-based, human; conditions: Homo sapiens, 4 hours
In short: as §1

[7] = test system: phosphorylation of ERK, KRAS G12C in NCJ-H358 cells; assay: pERK inhibition assay, KRAS G12C; assay type: cell-based, human; conditions: Homo sapiens, 4 hours
In short: as §1

[8] = test system: cryopreserved suspension hepatocytes from human; assay: Human hepatocyte stability assay; assay type: in vitro ADME; conditions: for Clearance Category: human hepatocytes; for CL_hep (Human): human hepatocytes 1×10^6 cells/mL, 37° C.
Experimental: The hepatocyte stability assay measures the rate of disappearance of a compound from incubations with cryopreserved suspension hepatocytes from human. Positive controls, including Midazolam, Raloxifene and Dextromethorphan, are included in every experiment. Incubations consist of […] tested compound and suspension of human hepatocytes (1×10^6 cells/mL) in supplemented Williams' E Medium with 10% FBS and 0.5% Penicillin-streptomycin. The hepatocyte suspension was incubated with intermittent shaking 900 rpm at 37° C., in a 5% CO2 incubator. The reaction was stopped by adding methanol containing internal standard (2 μM Tolbutamide) at 2, 10, 20, 40, 60 and 120 minutes after compound addition, depletion of the parent compound was monitored by LC-MS/MS analysis.

[9] = molecular target: KRAS G12V binding to BRAF (Homo sapiens (Human), UniProt P01116+P62937, G12V); assay: KRAS-BRAF with CYPA (500 nM) interaction assay (TR-FRET), G12V; assay type: biochemical
In short: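 A TR-FRET assay measured how compound, in the presence of CYPA, disrupts binding of GMPPNP-loaded 6His-KRAS G12V to BRAF. The buffer contained 25 mM HEPES PH=7.4, 0.002% Tween20, 0.1% BSA, 100 mM NaCl, 5 mM MgCl2 and 10 μM GMPPNP. Compounds ran as a 16-point 3-fold dilution series from 10 μM for 3 hours.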

[10] = test system: SW620 (ATCC-CCL-227); assay: Cell viability assay, G12V (SW620); assay type: cell-based, human; conditions: Homo sapiens, SW-620; KRAS cell viability, SW620, 72 hrs, Cell Counting Kit-8
In short: (§2)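 Cells were seeded at 5,000 cells/well (NCI-H358) or 2,000 cells/well (AGS, SW620), incubated overnight, then treated with compounds in 0.5% DMSO final for 72 hrs. CCK-8 was added and OD450 minus OD650 read after 2 hrs; IC50 came from a 4-parameter sigmoidal fit.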

[11] = test system: NCI-H358 (ATCC-CRL5807) cells; assay: Cell viability assay, G12C (NCI-H358); assay type: cell-based, human; conditions: Homo sapiens; KRAS cell viability, NCI-H358, 72 hrs, Cell Counting Kit-8
In short: as §2

[12] = test system: AGS (ATCC-CRL-1739) cells; assay: Cell viability assay, G12D (AGS); assay type: cell-based, human; conditions: Homo sapiens, KRAS cell viability, 72 hrs, Cell Counting Kit-8
In short: as §2

T1 sequence (P01116-2 other isoform, or with tags, fused parts or gaps G12C): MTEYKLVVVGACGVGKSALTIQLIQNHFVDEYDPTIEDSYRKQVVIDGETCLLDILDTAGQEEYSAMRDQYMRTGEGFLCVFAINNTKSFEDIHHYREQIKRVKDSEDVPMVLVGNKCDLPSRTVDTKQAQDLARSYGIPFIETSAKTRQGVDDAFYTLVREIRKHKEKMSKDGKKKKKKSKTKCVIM
T1 sequence (P62937 whole entry): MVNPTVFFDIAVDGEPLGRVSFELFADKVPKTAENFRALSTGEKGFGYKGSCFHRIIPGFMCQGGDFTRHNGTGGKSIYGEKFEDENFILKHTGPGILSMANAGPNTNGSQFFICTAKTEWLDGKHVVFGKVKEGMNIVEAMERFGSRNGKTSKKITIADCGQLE
KRAS G12D binding to BRAF, sequence (P01116-2 other isoform, or with tags, fused parts or gaps G12D): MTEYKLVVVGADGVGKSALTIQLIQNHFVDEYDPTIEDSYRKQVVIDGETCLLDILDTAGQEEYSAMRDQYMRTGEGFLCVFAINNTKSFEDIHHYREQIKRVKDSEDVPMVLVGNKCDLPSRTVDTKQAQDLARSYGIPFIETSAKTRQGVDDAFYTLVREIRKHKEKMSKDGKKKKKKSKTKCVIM
KRAS G12D binding to BRAF, sequence (P62937 whole entry): as the sequence (P62937 whole entry) above
KRAS G12V binding to BRAF, sequence (P01116-2 other isoform, or with tags, fused parts or gaps G12V): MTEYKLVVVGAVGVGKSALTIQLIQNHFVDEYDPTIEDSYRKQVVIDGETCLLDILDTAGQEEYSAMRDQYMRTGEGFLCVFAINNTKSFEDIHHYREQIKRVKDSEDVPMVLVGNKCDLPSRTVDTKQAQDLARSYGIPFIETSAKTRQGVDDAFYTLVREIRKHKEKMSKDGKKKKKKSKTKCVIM
KRAS G12V binding to BRAF, sequence (P62937 whole entry): as the sequence (P62937 whole entry) above

IC50 [2]	IC50 [3]	IC50 [4]	IC50 [5]	IC50 [6]	IC50 [7]	CL_hep (Human) [8]	IC50 [9]	IC50 [10]	IC50 [11]	IC50 [12]	SMILES	ring closure, yield of all isomers ([1]; from CCn1c(-c2cc(N3CCOCC3)cnc2[C@H](C)OC)c(CC(C)(C)CO)c2cc(-c3csc(C[C@H](NC(=O)OC(C)(C)C)C(=O)N4CCC[C@@H](C(=O)O)N4)n3)c(F)cc21, 11.72 mM, 20.0 °C)	Clearance Category [8]	ring closure, yield of all isomers ([1]; from CO[C@@H](C)c1ncc(N2CCN(C(=O)OCc3ccccc3)CC2)cc1-c1c(CC(C)(C)CO)c2cc(-c3csc(C[C@H](NC(=O)OC(C)(C)C)C(=O)N4CCC[C@@H](C(=O)O)N4)n3)c(F)cc2n1CC(F)(F)F, 9.63 mM, 15.0 °C)
48 nM	122 nM	4370 nM		110 nM	2 nM	6.4 mL/min/kg	> 10000 nM	635 nM	2 nM	1280 nM	CO[C@@H](C)c1ncc(N2CCN(C)CC2)cc1-c1c2c3cc(c(F)cc3n1CC(F)(F)F)-c1csc(n1)C[C@H](NC(=O)[C@H](C(C)C)N1CC[C@@]3(CCN(C(=O)[C@H](F)Cl)C3)C1=O)C(=O)N1CCC[C@H](N1)C(=O)OCC(C)(C)C2 (atropisomer, axis not shown; (M)) [Example 4, (2S)-2-[(5R)-7-[(2R)-2-chloro-2-fluoro-acetyl]-1-oxo-2,7-diazaspiro[4.4]nonan-2-yl]-N-[(7S,13S)-24-fluoro-(20M)-20-[2-[(1S)-1-methoxyethyl]-5-(4-methylpiperazin-1-yl)-3-pyridyl]-17,17-dimethyl-8,14-dioxo-21-(2,2,2-trifluoroethyl)-15-oxa-4-thia-9,21,27,28-tetrazapentacyclo[17.5.2.1^2,5.1^9,13.0^22,26]octacosa-1(25),2,5(28),19,22(26),23-hexaen-7-yl]-3-methyl-butanamide]		low (CL_hep (mL/min/kg)<6.96 is low clearance)	
26 nM				48 nM	2 nM	12.5 mL/min/kg		42 nM	2 nM	2240 nM	CO[C@@H](C)c1ncc(N2CCN(C)CC2)cc1-c1c2c3cc(c(F)cc3n1CC(F)(F)F)-c1csc(n1)C[C@H](NC(=O)[C@H](C(C)C)N1CC[C@]3(CCN(C(=O)[C@H](F)Cl)C3)C1=O)C(=O)N1CCC[C@H](N1)C(=O)OCC(C)(C)C2 (atropisomer, axis not shown; (M)) [Example 5, (2S)-2-[(5S)-7-[(2R)-2-chloro-2-fluoro-acetyl]-1-oxo-2,7-diazaspiro[4.4]nonan-2-yl]-N-[(7S,13S)-24-fluoro-(20M)-20-[2-[(1S)-1-methoxyethyl]-5-(4-methylpiperazin-1-yl)-3-pyridyl]-17,17-dimethyl-8,14-dioxo-21-(2,2,2-trifluoroethyl)-15-oxa-4-thia-9,21,27,28-tetrazapentacyclo[17.5.2.1^2,5.1^9,13.0^22,26]octacosa-1(25),2,5(28),19,22(26),23-hexaen-7-yl]-3-methyl-butanamide]		medium (16.24>CL_hep (mL/min/kg)>6.96 is medium clearance)	

The remaining lines, values behind:

SMILES	IC50 [2]	IC50 [3]	IC50 [4]	IC50 [5]	IC50 [6]	IC50 [7]	CL_hep (Human) [8]	IC50 [9]	IC50 [10]	IC50 [11]	IC50 [12]	ring closure, yield of all isomers ([1]; from CCn1c(-c2cc(N3CCOCC3)cnc2[C@H](C)OC)c(CC(C)(C)CO)c2cc(-c3csc(C[C@H](NC(=O)OC(C)(C)C)C(=O)N4CCC[C@@H](C(=O)O)N4)n3)c(F)cc21, 11.72 mM, 20.0 °C)	Clearance Category [8]	ring closure, yield of all isomers ([1]; from CO[C@@H](C)c1ncc(N2CCN(C(=O)OCc3ccccc3)CC2)cc1-c1c(CC(C)(C)CO)c2cc(-c3csc(C[C@H](NC(=O)OC(C)(C)C)C(=O)N4CCC[C@@H](C(=O)O)N4)n3)c(F)cc2n1CC(F)(F)F, 9.63 mM, 15.0 °C)
CCn1c(-c2cc(N3CCOCC3)cnc2[C@H](C)OC)c2c3cc(c(F)cc31)-c1csc(n1)C[C@H](NC(=O)OC(C)(C)C)C(=O)N1CCC[C@H](N1)C(=O)OCC(C)(C)C2												49.1%		
CC(C)[C@@H](C(=O)N[C@H]1Cc2cc(O)cc(c2)-c2ccc3c(C(C)(C)C#N)cn(c3c2)CC(C)(C)COC(=O)[C@@H]2CCCN(N2)C1=O)N1CCC2(CN(C(=O)[C@H](F)Cl)C2)C1=O [RM44-A, reference compound]	> 10000 nM	779 nM	> 10000 nM	1150 nM	> 10000 nM	> 10000 nM	<2.4 mL/min/kg	> 10000 nM					low (CL_hep (mL/min/kg)<6.96 is low clearance)	
CO[C@@H](C)c1ncc(N2CCN(C)CC2)cc1-c1c2c3cc(c(F)cc3n1CC(F)(F)F)-c1csc(n1)C[C@H](NC(=O)[C@H](C(C)C)N1CCCC3(CCN(C(=O)[C@H](F)Cl)CC3)C1=O)C(=O)N1CCC[C@H](N1)C(=O)OCC(C)(C)C2 (atropisomer, axis not shown; (M)) [Example 6, (2S)-2-[9-[(2R)-2-chloro-2-fluoro-acetyl]-1-oxo-2,9-diazaspiro[5.5]undecan-2-yl]-N-[(7S,13S)-24-fluoro-(20M)-20-[2-[(1S)-1-methoxyethyl]-5-(4-methylpiperazin-1-yl)-3-pyridyl]-17,17-dimethyl-8,14-dioxo-21-(2,2,2-trifluoroethyl)-15-oxa-4-thia-9,21,27,28-tetrazapentacyclo[17.5.2.1^2,5.1^9,13.0^22,26]octacosa-1(25),2,5(28),19,22(26),23-hexaen-7-yl]-3-methyl-butanamide]	24 nM				21 nM	1 nM	13.4 mL/min/kg		21 nM	1 nM	76 nM		medium (16.24>CL_hep (mL/min/kg)>6.96 is medium clearance)	
CO[C@@H](C)c1ncc(N2CCN(C(=O)OCc3ccccc3)CC2)cc1-c1c2c3cc(c(F)cc3n1CC(F)(F)F)-c1csc(n1)C[C@H](NC(=O)OC(C)(C)C)C(=O)N1CCC[C@H](N1)C(=O)OCC(C)(C)C2														73.4%
CO[C@@H](C)c1ncc(N2CCN(C)CC2)cc1-c1c2c3cc(c(F)cc3n1CC(F)(F)F)-c1csc(n1)C[C@H](NC(=O)[C@H](C(C)C)N1CCC3(CCN(C(=O)[C@H](F)Cl)CC3)C1=O)C(=O)N1CCC[C@H](N1)C(=O)OCC(C)(C)C2 (atropisomer, axis not shown; (M)) [Example 15, (2S)-2-[8-[(2R)-2-chloro-2-fluoro-acetyl]-1-oxo-2,8-diazaspiro[4.5]decan-2-yl]-N-[(7S,13S)-24-fluoro-(20M)-20-[2-[(1S)-1-methoxyethyl]-5-(4-methylpiperazin-1-yl)-3-pyridyl]-17,17-dimethyl-8,14-dioxo-21-(2,2,2-trifluoroethyl)-15-oxa-4-thia-9,21,27,28-tetrazapentacyclo[17.5.2.1^2,5.1^9,13.0^22,26]octacosa-1(25),2,5(28),19,22(26),23-hexaen-7-yl]-3-methyl-butanamide]				32 nM			10.9 mL/min/kg		771 nM	< 1 nM	3240 nM		medium (16.24>CL_hep (mL/min/kg)>6.96 is medium clearance)	
